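Each compound was tested at five concentrations against cells in 96-well plates for 48 hours. GI50 marks 50% less growth. TGI marks complete inhibition of growth.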
What was measured:
Assay in all cases: DTP human tumour cell line panel, 48 h
[1] = tested on: SNB-75 CNS
[2] = tested on: DU-145 prostate
[3] = tested on: IGROV1 ovarian
[4] = tested on: M14 melanoma
[5] = tested on: MCF7 breast
[6] = tested on: MDA-MB-435
[7] = tested on: SF-539 CNS
[8] = tested on: HOP-92 NSCLC
[9] = tested on: SN12C renal
[10] = tested on: SF-268 CNS
[11] = tested on: HCC-2998 colon
[12] = tested on: OVCAR-4 ovarian
[13] = tested on: UACC-257 melanoma
[14] = tested on: U251 CNS
[15] = tested on: NCI-H460 lung
[16] = tested on: HCT-15 colon
[17] = tested on: OVCAR-5 ovarian
[18] = tested on: KM12 colon
[19] = tested on: NCI-H226 lung
[20] = tested on: RXF 393 renal
[21] = tested on: PC-3 prostate
[22] = tested on: NCI-H522 lung
[23] = tested on: BT-549 breast
[24] = tested on: RPMI-8226 leukemia
[25] = tested on: SR leukemia
[26] = tested on: HOP-62 NSCLC
[27] = tested on: MOLT-4 leukemia
[28] = tested on: SNB-19 CNS
[29] = tested on: HT29 colon
[30] = tested on: LOX IMVI melanoma
[31] = tested on: HL-60(TB) leukemia
[32] = tested on: COLO 205 colon
[33] = tested on: CCRF-CEM leukemia
[34] = tested on: UO-31 renal
[35] = tested on: SK-MEL-28 melanoma
[36] = tested on: OVCAR-8 ovarian
[37] = tested on: SK-OV-3 ovarian
[38] = tested on: NCI-H23 lung
[39] = tested on: T-47D breast
[40] = tested on: ACHN renal
[41] = tested on: SK-MEL-5 melanoma
[42] = tested on: MDA-MB-231 breast
[43] = tested on: A498 renal
[44] = tested on: SF-295 CNS
[45] = tested on: HCT-116 colon
[46] = tested on: TK-10 renal
[47] = tested on: UACC-62 melanoma
[48] = tested on: HS 578T breast
[49] = tested on: 786-0 renal
[50] = tested on: EKVX NSCLC
[51] = tested on: A549 NSCLC
[52] = tested on: K-562 leukemia
[53] = tested on: OVCAR-3 ovarian
[54] = tested on: SW-620 colon
[55] = tested on: SK-MEL-2 melanoma
[56] = tested on: CAKI-1 renal
[57] = tested on: NCI/ADR-RES ovarian

## O=C(NCCNc1nccc(-c2c(-c3ccc(F)cc3)nc3sccn23)n1)Nc1cccc(C(F)(F)F)c1
[1]
  GI50: 7.13 µM
  TGI: 21.7 µM
[2]
  GI50: 11.6 µM
  TGI: 30.9 µM
[3]
  GI50: 4.59 µM
  TGI: 20 µM
[4]
  GI50: 8.73 µM
  TGI: 21.8 µM
[5]
  GI50: 3.73 µM
  TGI: 19.5 µM
[6]
  GI50: 3.12 µM
  TGI: 11.4 µM
[7]
  GI50: 11.5 µM
  TGI: 26.7 µM
[8]
  GI50: 4.59 µM
  TGI: 33.3 µM
[9]
  GI50: 6.42 µM
  TGI: 22.7 µM
[10]
  GI50: 12.2 µM
  TGI: 41.1 µM
[11]
  GI50: 5.21 µM
  TGI: 17.7 µM
[12]
  GI50: 4.74 µM
  TGI: 43 µM
[13]
  GI50: 10.6 µM
  TGI: 26.1 µM
[14]
  GI50: 7.62 µM
  TGI: 31.7 µM
[15]
  GI50: 4.51 µM
  TGI: 17.5 µM
[16]
  GI50: 4.22 µM
  TGI: 47.9 µM
[17]
  GI50: 18.5 µM
  TGI: 54.4 µM
[18]
  GI50: 6.43 µM
  TGI: 23.9 µM
[19]
  GI50: 2.38 µM
  TGI: 10.6 µM
[20]
  GI50: 1.99 µM
  TGI: 6.05 µM
[21]
  GI50: 3.93 µM
  TGI: 42.3 µM
[22]
  GI50: 12.2 µM
  TGI: 26 µM
[23]
  GI50: 13.2 µM
  TGI: 30.5 µM
[24]
  GI50: 3.52 µM
  TGI: 34 µM
[25]
  GI50: 5.4 µM
  TGI: 55.3 µM
[26]
  GI50: 2.9 µM
  TGI: 10.1 µM
[27]
  GI50: 6.3 µM
  TGI: > 100 µM
[28]
  GI50: 7.93 µM
  TGI: 36.8 µM
[29]
  GI50: 6.44 µM
  TGI: 28 µM
[30]
  GI50: 5.36 µM
  TGI: 20.7 µM
[31]
  GI50: 11.5 µM
  TGI: > 100 µM
[32]
  GI50: 2.57 µM
  TGI: 7.73 µM
[33]
  GI50: 3.14 µM
  TGI: 30.1 µM
[34]
  GI50: 2.94 µM
  TGI: 16 µM
[35]
  GI50: 7.76 µM
  TGI: 20.9 µM
[36]
  GI50: 3.76 µM
  TGI: 27.4 µM
[37]
  GI50: 2.67 µM
  TGI: 11.9 µM
[38]
  GI50: 8.73 µM
  TGI: 26.4 µM
[39]
  GI50: 2.15 µM
  TGI: 8.48 µM
[40]
  GI50: 4.14 µM
  TGI: 36.7 µM
[41]
  GI50: 1.58 µM
  TGI: 3.43 µM
[42]
  GI50: 3.28 µM
  TGI: 10.1 µM
[43]
  GI50: 10.7 µM
  TGI: 23.8 µM
[44]
  GI50: 4.28 µM
  TGI: 17.6 µM
[45]
  GI50: 5.47 µM
  TGI: 18.9 µM
[46]
  GI50: 10.5 µM
  TGI: 36.2 µM
[47]
  GI50: 4.75 µM
  TGI: 17 µM
[48]
  GI50: 8.17 µM
  TGI: 65.5 µM
[49]
  GI50: 5.16 µM
  TGI: 24.9 µM
[50]
  GI50: 4.69 µM
  TGI: 30.6 µM
[51]
  GI50: 5.51 µM
  TGI: 24.5 µM
[52]
  GI50: 6.14 µM
  TGI: > 100 µM
[53]
  GI50: 17.7 µM
  TGI: 94.5 µM
[54]
  GI50: 13.6 µM
  TGI: 32 µM
[55]
  GI50: 3.02 µM
  TGI: 8.8 µM
[56]
  GI50: 3.68 µM
  TGI: 27.6 µM
[57]
  GI50: 4.38 µM
  TGI: 64.2 µM
